Measured values reported in patent US9510598B2, “Nitrogen-containing heterocyclic compounds for plant disease control” (BAYER CROPSCIENCE AG, priority 2012, dated 2016).
Several values for one entry are separate records, joined by “and”; a condition that tells them apart may be missing. Equal values may be shown once. Read-outs that look alike come from different tables or passages of the source.

Key:
[1] = format: physicochemical
Alternaria brassicae = assay: In vivo preventive test on Alternaria brassicae (leaf spot on radish); conditions: 500 ppm; radish plants sprayed 24 hours before contamination; grading 5 days after contamination vs control plants
Method in brief: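 Radish plants ('Pernod Clair', grown at 17 °C) were spray-treated at the 2-leaf stage; controls received solvent mix only. After 24 h, leaves were sprayed with 50 000 spores/ml from 15-day-old cultures, and % efficacy was graded 5 days post-inoculation against controls.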

Pyrenophora teres = assay: In vivo preventive test on Pyrenophora teres (net blotch on barley); conditions: 500 ppm; barley plants sprayed 24 hours before contamination; grading 12 days after contamination vs control plants
Procedure: Barley plants (“Plaisant” variety), sown in starter cups on a 50/50 peat soil-pozzolana substrate and grown at 22° C. (12 h)/20° C. (12 h), are treated at the 1-leaf stage (10 cm height) by spraying with the active ingredient prepared as described above. Plants, used as controls, are treated with the mixture of acetone/tween/DMSO/water not containing the active material. After 24 hours, the plants are contaminated by spraying the leaves with an aqueous suspension of Pyrenophora teres spores (12 000 spores per ml). The spores are collected from a 12-day-old culture. […] Grading (% of efficacy) is carried out 12 days after the contamination, in comparison with the control plants.

Puccinia recondita = assay: In vivo preventive test on Puccinia recondita (brown rust on wheat); conditions: 500 ppm; wheat plants sprayed 24 hours before contamination; grading 10 days after contamination vs control plants
Procedure: Wheat plants (“Scipion” variety), sown in starter cups on a 50/50 peat soil-pozzolana substrate and grown at 22° C. (12 h)/20° C. (12 h), are treated at the 1-leaf stage (10 cm height) by spraying with the active ingredient prepared as described above. Plants, used as controls, are treated with the mixture of acetone/tween/DMSO/water not containing the active material. After 24 hours, the plants are contaminated by spraying the leaves with an aqueous suspension of Puccinia recondita spores (100 000 spores per ml).

Septoria tritici = assay: In vivo preventive test on Septoria tritici (leaf spot on wheat); conditions: 500 ppm; wheat plants sprayed 24 hours before contamination; grading 21 to 28 days after contamination vs control plants
Method in brief: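 Scipion wheat at 1-leaf stage sprayed with compound, controls receiving acetone/tween/DMSO/water vehicle; 24 h later leaves inoculated with Septoria tritici spores (500 000 spores per ml). Efficacy (%) graded versus control plants 21 to 28 days after contamination.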

Uromyces appendiculatus = assay: In vivo preventive test on Uromyces appendiculatus (bean rust); conditions: 500 ppm; bean plants sprayed 24 hours before contamination; grading 10 days after contamination vs control plants
Procedure: Bean plants (“Saxa” variety), sown in starter cups on a 50/50 peat soil-pozzolana substrate and grown at 24° C., are treated at the 2-leaf stage (9 cm height) by spraying with the active ingredient prepared as described above. Plants, used as controls, are treated with the mixture of acetone/tween/DMSO/water not containing the active material. After 24 hours, the plants are contaminated by spraying the leaves with an aqueous suspension of Uromyces appendiculatus spores (150 000 spores per ml).

Sphaerotheca fuliginea = assay: In vivo preventive test on Sphaerotheca fuliginea (powdery mildew on cucurbits); conditions: 500 ppm; gherkin plants sprayed 24 hours before contamination; grading 12 days after contamination vs control plants
Method in brief: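 Preventive spray of gherkin plants at Z11 cotyledon stage, grown at 24° C; inoculation 24 hours later with Sphaerotheca fuliginea spores (100 000 spores per ml). Efficacy graded 12 days post-inoculation as % versus solvent-treated control plants.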

Botrytis cinerea = assay: In vivo preventive test on Botrytis cinerea (grey mould); conditions: 500 ppm; gherkin plants sprayed 24 hours before contamination; grading 4-5 days after contamination vs control plants
Method in brief: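 Gherkin plants ("Vert petit de Paris") sprayed with compound at Z11 cotyledon stage, then inoculated 24 h later with B. cinerea spores (50 000/ml) in PDB/fructose/NH4NO3/KH2PO4 nutrient solution. Incubated at 17 °C, 80% RH; % efficacy versus solvent-treated controls graded 4–5 days after contamination.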

Peronospora parasitica = assay: In vivo preventive test on Peronospora parasitica (crucifer downy mildew); conditions: 500 ppm; cabbage plants sprayed 24 hours before contamination; grading 5 days after contamination vs control plants
Procedure: Cabbage plants (Eminence variety) in starter cups, sown on a 50/50 peat soil-pozzolana substrate and grown at 18-20° C., are treated at the cotyledon stage by spraying with the aqueous suspension described above. Plants, used as controls, are treated with an aqueous solution not containing the active material. After 24 hours, the plants are contaminated by spraying them with an aqueous suspension of Peronospora parasitica spores (50.000 spores per ml). The spores are collected from infected plant. The contaminated cabbage plants are incubated for 5 days at 20° C., under a humid atmosphere. Grading is carried out 5 days after the contamination, in comparison with the control plants.

Phytophthora infestans = format: in vivo; conditions: 500 ppm; tomato plants sprayed 24 hours before contamination; grading 5 days after contamination vs control plants
[2] = method [a]: HPLC/LC-MS on reversed phase at pH 2.7, 0.1% formic acid in water / acetonitrile, gradient 10% to 95% acetonitrile
[3] = method [a]: HPLC/LC-MS on reversed phase at pH 2.7, 0.1% formic acid in water / acetonitrile, linear gradient 10% to 95% acetonitrile
[4] = HPLC on reversed phase columns, method [a]: pH 2.7, 0.1% formic acid in water / acetonitrile, linear gradient 10% to 95% acetonitrile

Compound	log P [1, 2]	% of efficacy (protection) (Alternaria brassicae)	% of efficacy (protection) (Pyrenophora teres) [%]	% of efficacy (protection) (Puccinia recondita) [%]	% of efficacy (protection) (Septoria tritici)	% of efficacy (protection) (Uromyces appendiculatus) [%]	% of efficacy (protection) (Sphaerotheca fuliginea)	log P [1, 3]	% of efficacy (protection) (Botrytis cinerea) [%]	Grading, protection (Peronospora parasitica) [%]	% of efficacy (protection) (Phytophthora infestans) [%]	log P [1, 4]
CCn1cc(CNC(=O)C2(C)CC(c3ccc4ncc(C(F)(F)F)cc4c3)=NO2)c(C)n1 (racemic) [compound 383]	2.45[a]	83%	86	94	100%	99	–	–	–	–	–	–
CC(C)NC(=O)C1(C)CC(c2ccc3ncc(C(F)(F)F)cc3c2)=NO1 (racemic) [compound 384]	2.90[a]	83%	86	89	100%	79	–	–	–	–	–	–
CC(C)NC(=O)C1(C)CC(c2ccc3ncc(N)cc3c2)=NO1 (racemic) [compound 435]	1.19[a]	–	83	–	–	77	–	–	–	–	–	–
COC1(C(=O)NC(C)C)CC(c2ccc3ncc(I)cc3c2)=NO1 (racemic) [compound 436]	2.75[a]	–	92	94	100%	100	100%	–	–	–	–	–
C#Cc1cnc2ccc(C3=NOC(CC)(C(=O)NCCCOCC)C3)cc2c1 (racemic) [compound 440]	2.73[a]	–	75	–	–	–	89%	–	–	–	–	–
CC(C)NC(=O)C1(C)CC(c2ccc3ncc(Br)cc3c2)=NO1 (stereo not drawn) [compound 31]	–	–	–	–	100%	–	100%	2.75^[a]	93	90	–	–
CCn1cc(CNC(=O)C2(C)CC(c3ccc4ncc(Br)cc4c3)=NO2)c(C)n1 (stereo not drawn) [compound 34]	–	–	–	–	–	–	94% and 98%	2.39^[a]	100	98	99	–
CCn1cc(CNC(=O)C2(C(F)(F)F)CC(c3ccc4ncc(Br)cc4c3)=NO2)c(C)n1 (stereo not drawn) [compound 35]	–	–	–	–	97%	–	–	3.02^[a]	–	90	–	–
CCn1cc(CNC(=O)C2(C)CC(c3ccc4ncc(I)cc4c3)=NO2)c(C)n1 (stereo not drawn) [compound 39]	–	–	–	–	–	–	100%	2.49^[a]	100	100	100	–
C#Cc1cnc2ccc(C3=NOC(C)(C(=O)NCc4cn(CC)nc4C)C3)cc2c1 (stereo not drawn) [compound 43]	–	–	–	75	–	97	100%	2.14^[a]	100	94	100	–
CCCn1cc(CNC(=O)C2(C)CC(c3ccc4ncc(Br)cc4c3)=NO2)c(C)n1 (stereo not drawn) [compound 49]	–	–	–	–	79% and 97%	–	98%	2.64^[a]	100	100	100	–
CCOCCCNC(=O)C1(OC)CC(c2ccc3ncc(Br)cc3c2)=NO1 (stereo not drawn) [compound 52]	–	71% and 75%	71	88	93% and 97%	–	100%	2.68^[a]	100	–	–	–
CCOCCCNC(=O)C1(C(F)(F)F)CC(c2ccc3ncc(Br)cc3c2)=NO1 (stereo not drawn) [compound 105]	–	70%	79	71	75%	86	100%	3.57^[a]	–	–	–	–
CC1(C)OCC(CNC(=O)C2(C)CC(c3ccc4ncc(Br)cc4c3)=NO2)O1 (stereo not drawn) [compound 129]	–	–	88	–	100%	100	80%	2.64^[a]	–	–	85	–
C#Cc1cnc2ccc(C3=NOC(C)(C(=O)NCc4ccccc4)C3)cc2c1 (stereo not drawn) [compound 169]	–	–	79	–	100%	–	–	2.86^[a]	100	–	–	–
C#Cc1cnc2ccc(C3=NOC(C)(C(=O)NCc4ccc(Cl)cc4Cl)C3)cc2c1 (stereo not drawn) [compound 198]	–	98%	86	–	86%	–	–	3.73^[a]	95	–	–	–
C#Cc1cnc2ccc(C3=NOC(C)(C(=O)NC(C)c4ccccn4)C3)cc2c1 (stereo not drawn) [compound 206]	–	–	71	–	100%	–	94%	1.9^[a]	–	–	93	–
C#Cc1cnc2ccc(C3=NOC(C)(C(=O)NCc4ccc5c(c4)CCO5)C3)cc2c1 (stereo not drawn) [compound 219]	–	75%	71	–	–	–	–	2.78^[a]	99	–	–	–
C#Cc1cnc2ccc(C3=NOC(C)(C(=O)NCc4cccc5ccccc45)C3)cc2c1 (stereo not drawn) [compound 225]	–	–	79	–	–	–	–	3.46^[a]	–	–	–	–
CCc1cnc2ccc(C3=NOC(C)(C(=O)NCc4cn(CC)nc4C)C3)cc2c1 (stereo not drawn) [compound 256]	–	–	75	–	100%	–	–	–	–	–	–	1.72^[a]
Cc1cnc2ccc(C3=NOC(C)(C(=O)NC(C)C)C3)cc2c1 (stereo not drawn) [compound 260]	–	–	75	–	98%	–	–	–	75	–	90	1.63^[a]
C#CCONC(=O)C1(C)CC(c2ccc3ncc(Br)cc3c2)=NO1 (stereo not drawn) [compound 306]	–	71%	75	–	78%	100	–	–	–	–	–	2.22[a]
C#Cc1cnc2ccc(C3=NOC(OC)(C(=O)NC(C)C)C3)cc2c1 (stereo not drawn) [compound 406]	2.35[a]	–	83	–	100%	–	100%	–	–	–	–	–
COC1C(c2ccc3ncc(Br)cc3c2)=NOC1(C)C(=O)NC(C)C (stereo not drawn) [compound 419]	2.91[a]	–	75	–	–	–	–	–	–	–	–	–
C=C(C)C1(C(=O)NCC2COC(C)(C)O2)CC(c2ccc3ncc(Br)cc3c2)=NO1 (stereo not drawn) [compound 520]	–	–	88	–	79%	–	–	–	–	–	–	3.29[a]
